# From US20260199514A1, “PRODRUG STRATEGY THAT ENHANCES EFFICACY AND LOWERS SYSTEMIC TOXICITY OF MERTANSINE” (priority 2022, published 2026)
# Legend:
# [1] = Maximum tolerated dose (MTD) study in healthy mice; type: in vivo; conditions: healthy NOD-SCID mice
# Procedure: When mice were injected with free DM1 at a dose over 0.5 mg/kg twice on days 0 and 3, we observed that all animals lost over 15% of their body weight and were morbid before the end of the week (FIG. 5). […] We concluded that liposomal prodrug formulations made treatment with DM1 possible in comparison to free DM1, where its intense systemic toxicity made it a non-viable treatment option. With this approach of liposomal prodrug formulation, even the non-targeted formulations already achieved an improved therapeutic index for DM1.
# Maximum Tolerated Dose (MTD) Study. […] Free drug (DM1) was administered according to the recommendations of the manufacturer. Briefly, Free drug treatments were prepared by dissolving in 10% DMSO and 90% saline containing (20% Hydroxypropyl-β-cyclodextrin as excipient) and then administered intravenously into mice.
# NCI-H929 MM Cells = test: In vitro cytotoxicity assay (CCK-8); type: cell-based, human; conditions: NCI-H929 cell line
# Procedure: Next, we evaluated the efficacy of liposomal DM1-Prodrug formulations against MM cells in vitro. For this, NCI-H929 cells were incubated with NP[Prodrug], TNP[Prodrug], free DM1-Prodrug or free drug for 24 h, 48 h and 72 h, and cell viability was determined using cell counting kit-8 (CCK-8) reagent. […] The differences in the IC50 values between free drug and the nanoparticles is possibly attributed to the release kinetics of active DM1 from nanoparticles.
# Cell Culture. NCI-H929 cells were purchased from ATCC (Rockville, MD). Cells were cultured in RPMI 1640 media (Corning, NY). The cell line was supplemented with 20% fetal bovine serum (FBS), 2 mM L-Glutamine (Gibco, CA), 100U/mL penicillin (Gibco, CA), 100 μg/mL streptomycin (Gibco) and 55 μM 2-mercaptoethanol.
# Cytotoxicity Assays. 15×10^3 cells/well were plated 24 h prior to each experiment in a 96-well plate. The following day, cells were treated with respective cytotoxic agents at varying concentrations. Cytotoxicity was assessed at 24 h, 48 h and 72 h using Cell Counting Kit-8 Reagent via reading absorbance at 450 nm. Viability was normalized to wells containing untreated cells.
# NCI-H929 cells = test: Apoptosis assay (Annexin-V / PI staining); type: cell-based, human; conditions: 20 nM equivalence of DM1, 24 h, Annexin-V and PI
# Procedure: NCI-H929 cells were incubated with 20 nM equivalence of DM1 concentration either in the form of one of the liposomal prodrug formulations, or the free drug for 24 h.
# Apoptosis Assay. NCI-H929 cells were cultured in the presence of 20 nM of DM1 equivalent concentrations of NP[Prodrug], TNP[Prodrug], and free drug for 24 h. Cells were washed and stained using the Dead Cell Apoptosis Kit by following and optimizing the manufacturer's protocol. Briefly, cells were washed with cold PBS, resuspended in 1X binding buffer, followed by Annexin-V and PI staining for 30 min at room temperature. Staining was performed by adding 7 μL of Alexa Fluor® 488 Annexin-V and 8 μL of 100 μg/mL PI working solution to each 100 μL of cell suspensions. Cells in treatment groups and untreated control were stained with Annexin-V and PI. Fluorescent microscopy images were acquired by using an EVOS® FL Auto Imaging System.
structure (smiles),measurement,setting,value
"COc1cc2cc(c1Cl)N(C)C(=O)C[C@H](OC(=O)[C@H](C)N(C)C(=O)CCS)[C@]1(C)O[C@H]1[C@H](C)[C@@H]1C[C@@](O)(NC(=O)O1)[C@H](OC)/C=C/C=C(\C)C2 [free DM1, Mertansine]",body weight loss,[1]; dose over 0.5 mg/kg twice on days 0 and 3,over 15%
same,toxicity / side-effects in MTD study,"[1]; injections on days 0 and 3, equivalent DM1 doses (nanoparticles up to 4 mg/kg)",morbid
same,IC50,NCI-H929 MM Cells; 24 hours,12 nM
same,IC50,NCI-H929 MM Cells; 72 hours,9 nM
same,induction of apoptosis of MM cells,NCI-H929 cells,induce apoptosis
